According to patent publication US11291659B2, “P38 kinase inhibitors reduce DUX4 and downstream gene expression for the treatment of FSHD” (Fulcrum Therapeutics, Inc., priority 2017, dated 2022):

What was measured:
[1] = system: MBD3L2 mRNA (DUX4 downstream gene); assay: MBD3L2 mRNA expression by qPCR in FSHD myotubes; type: cell-based, Human; conditions: for IC50: Homo sapiens, Myotube, read-out: IC50, reduction of MBD3L2 mRNA expression, FSHD myotubes, realtime PCR
Method: Cell Plating: Performed three days prior to treatment, 10000 cells were plated per well on gelatinized 96-well plates, or 100000 cells on gelatinized 6-well plates.
(§1) For ASO or compound treatments cells were plate into 100 μL of Promocell growth medium containing ASO or compounds at the described concentrations.
(§2) On day 0, change to differentiation media. Remove plates from the incubator and aspirate the growth medium, Wash once with PBS, 100 μL for 96-wells and 1 mL for a 6-well plate, Add 100 μL or 2 mL of differentiation medium per well, 96- or 6-well respectively. Add antisense oligonucleotides or drug at the desire concentration and put back in the incubator. Fusion should start within day 1-2. Incubate for 3-4 days.
(§3) Cells were removed from the incubator and media aspirated. Quickly lysed following one of the following protocols: For lysis in 96-well plates direct lysis and one-step RT-Preamp qPCR protocol described below. For each 96-well prepare a mix containing: 19.5 μL Roche Realtime Ready lysis buffer, 0.25 μL RNAse inhibitor, 0.25 μL DNAseI (from Thermo not the included one in the kit). 20 μL of the mix was added to each well, mix 5 times and incubated 5 minutes at RT or alternatively shaken vigorously for 15 minutes. Lysis was observed under the microscope. Samples were frozen −80° C. at least for 15 minutes,
(§4) For qPCR, dilute 1:10 and use 2 μL for a 10 μL 1-step RT-qPCR reaction. For detection of GAPDH, RPLP0, TBP, MYOG, FRG1, MYH3, ACTN2, etc.). Per 10 μL reaction: RNA (1:10 dilution lysate) 2 μL, Fast Advanced Taqman Master Mix (2×) 5 μL, RT enzyme mix (40×) 0.25 μL, Taqman probe set (20×) 0.5 μL, H2O 2.25 μL. The following reaction protocol was run on the QuantStudio 7: 48° C. for 15 min, 50° C. for 2 min, 95° C. for 30 sec, 40×, 95° C. for 5 sec, 60° C. for 30 sec, then plates were read as specified by the manufacturer (Thermo). For 1-step RT-Preamplification used for detection of DUX4 downstream genes, i.e. MBD3L2, ZSCAN4, LEUTX, TRIM43, KHDC1L. POL2RA-VIC was used as Endogenous control). Per 10 μL reaction: RNA (1:10 dilution lysate) 2.25 μL, Taqman Pre-Amp Master Mix (2×) 5 μL, RT enzyme mix (40×) 0.25 μL, Taqman probe set (0.2×)*2.5 μL, * Pooling the TaqMan Assays: equal volumes of each 20× TaqMan® Gene Expression Assay, up to 100 assays were combined. For example, to pool 50 TaqMan assays, 10 μL of each assay were combined in a microcentrifuge tube. The pooled TaqMan assays were diluted using 1×TE buffer so that each assay is at a final concentration of 0.2×. For the above example, add 500 μL of 1×TE buffer to the pooled TaqMan assays for a total final volume of 1 mL. The QuantStudio7 protocol was used 48° C. 15 min, 95° C. 10 min, 10 cycles: 95° C. 15 sec, 60° C. 4 min, 4° C. infinite. Samples were then diluted to 50 μL and continue with the qPCR step. Per 10 μL reaction: Preamp dilution 2 μL, Fast Advanced Taqman Master Mix (2×) 5 μL, Taqman probe set (20×) 0.5 μL, H2O 2.5 μL. When multiplexing the volume was adjusted to 10 μL total). The following program was run on the QuantStudio7: 50° C. for 2 min, 95° C. for 30 sec, 40×, 95° C. for 5 sec, 60° C. for 30 sec, plates were read as per the manufacturers specifications (Thermo).
(§5) After treatment, the control and treated cells were processed for realtime PCR quantification of MBD3L2 mRNA (DUX4 downstream gene) and myogenin (MYOG) mRNA (control) expression.

FSHD myotubes = assay: Myotube formation / fusion, MHC and DAPI staining; type: cell-based, Human; conditions: immortalized FSHD myotubes; 1, 0.33, 0.11, 0.037 μM; 4 days
Method: as §2
Briefly, cells were fixed in 4% paraformaldehyde and […] for 10 min at room temperature. Cells were permeabilized with PBST (1×PBS solution with 0.1% Triton X-100) before blocking with 10% Normal Donkey Serum or 3% BSA (NDS) in PBST. […] DUX4 was detected by immunocytochemistry using the E5-5 antibody in differentiated FSHD myotubes. Activated Caspase-3 was detected cell signaling antibody that we're using for ICC, Asp175 (https://www.cellsignal.com/products/primary-antibodies/cleaved-caspase-3-asp175-antibody/9661).
Immortalized FHSD myotubes were differentiated and treated with DMSO vehicle control or FTX-1821 at concentrations of 1 μM, 0.33 μM, 0.11 μM, or 0.037 μM. […] The nuclei in myotubes were quantified according to MHC staining (FIG. 8B).

DUX4 target genes = assay: RNA-seq profiling of FSHD myotubes; type: cell-based, Human
Excerpt: The 40 bp single-end reads from Illumina had good quality by checking with FastQC (http://www.bioinformatics.babraham.ac.uk/projects/fastqc/). Reads were mapped to hg19 using TopHat v2.1.1. The gene model for TopHat was created by merging known Gene in gtf format with kgXref table. Both known Gene and kgXref were downloaded from UCSC table browser in hg19 assembly. The read counts were obtained using feature Counts function from Subread package with strandness option as −r 2. Reads were normalized with DESeq2. […] Consequently, Combat was used for reducing this batch effect. Calculated standard RPKM expression values. Total gene signature is very small and defined at standard statistical cutoffs: 86/19,799 mRNA genes. DUX4-regulated gene signature is majority of total signature: 77/86 mRNA genes=90%. Non-DUX4 regulated genes is minority of total signature with moderate fold changes: 9/86 mRNA genes=10%; 2-2.7×log FC.
In addition, gene expression was also determined in wild type myotubes treated with DMSO. Three replicates for each condition were analyzed by RNA-seq and genes were clustered by the direction and intensity of change.

[2] = system: phospho MK2 to total MK2 ratio; assay: p38 system target engagement in rat trapezius muscle; type: in vivo, Sprague-Dawley rats
Method: Pharmacodynamic analysis of p38 system target engagement in muscle tissue was performed by measuring the change in phosphor MAP kinase-activated protein kinase 2 (MK2) to total MK2 ratio before and after drug treatment.

[3] = system: DUX4 dependent target genes; assay: Prediction for FSHD patient muscle from rat muscle concentrations and in vitro myotube data; design: species or system Human; conditions: at Cmax, FSHD patient muscle biopsies
Method: P38 system target engagement persisted for at least 12 hours following the single dose of FTX-1821 (FIG. 15). P38 system target engagement in trapezius muscle was maximal when plasma and muscle concentrations of FTX-1821 were greater than 20 ng/mL or ng/g and declined at timepoints when exposures decreased. The muscle concentrations of FTX-1821 achieved in the rat study are predicted to result in >70% reduction at Cmax in DUX4 dependent target genes in FSHD patient muscle biopsies based upon in vitro data in FSHD myotubes (above).

myogenin (MYOG) mRNA = assay: Myogenin (MYOG) mRNA expression by qPCR in FSHD myotubes (control gene); type: cell-based, Human
Method: as §1, §2, §3
as §4, with “For the above example, add 500 μL of 1×TE buffer to the pooled TaqMan assays for a total final volume of 1 mL. The QuantStudio7 protocol was used 48° C. 15 min, 95° C. 10 min, 10 cycles: 95° C. 15 sec, 60° C. 4 min, 4° C. infinite. Samples were then diluted to 50 μL and continue with the qPCR step. Per 10 μL reaction: Preamp dilution 2 μL, Fast Advanced Taqman Master Mix (2×) 5 μL, Taqman probe set (20×) 0.5 μL, H2O 2.5 μL. When multiplexing the volume was adjusted to 10 μL total).” left out
as §5

[4] = system: DUX4 and downstream genes ZSCAN4, TRIM43, MBD3L2, LEUTX, KHDC1L; assay: DUX4-regulated downstream genes by real time PCR after DUX4 ASO; type: cell-based, Human; conditions: FSHD myotubes
Method: as §1
Wild type myotubes were treated with DMSO control vehicle, and mature patient-derived FSHD myotubes that express DUX4 protein were treated with DMSO vehicle control or 1 μM of a DUX4 sequence-directed antisense oligonucleotide (ASO; FTX-2) purchased from Exiqon. After treatment, the myotubes were lysed in 19.5 μL of Roche Real Time Ready Lysis Buffer, 0.25 μL of DNAse1 (Ambion, AM2222), 0.25 μL of Protector RNase Inhibitor (Roche, 3335402001), and the RNA was collected in an RNeasy Micro Kit Master Mix. Expression levels of DUX4-regulated downstream genes (ZSCAN4, TRIM43, MBD3L2, LEUTX, and KHDC1L) was determined by real time PCR (ThermoFisher Scientific, 4484262), ZSCAN4 Taqman Assay (ThermoFisher Scientific, Hs00537549_m1, FAM-MGB), MYOG Taqman Assay (ThermoFisher Scientific, Hs01072232_m1, JUN-QSY), RPLP0 Taqman Assay (ThermoFisher Scientific, Hs99999902_m1), and/or LEUTX Taqman Assay (ThermoFisher Scientific, Hs00418470_m1). Ct values were extracted from QuantStudio Realtime PCR software, and Genedata was used to calculate relative levels of expression using POLR2A as a housekeeping gene.

[5] = rat trapezius muscle, single oral dose 0.3 mg/kg

**Q.** Which results are given for `Cc1c(F)cc(C(=O)NC2CC2)cc1-c1ccc(C(=O)NCC(C)(C)C)cn1` [FTX-1821]?
**A.** MBD3L2 mRNA expression ([1]; FSHD1 and FSHD2 primary patient myoblast lines, 1 μM): reduction of MBD3L2; MBD3L2 expression levels ([1]; myotubes of four FSHD patient lines FTCE-016, -020, -197, -196, 1 μM): reduced in all of the FSHD lines; myotube formation or fusion (FSHD myotubes): no changes; Non-DUX4-regulated genes in total signature (DUX4 target genes; 1 μM vs DMSO, RNA-seq): 9/86; fold changes of non-DUX4-regulated genes (DUX4 target genes; 1 μM vs DMSO, RNA-seq): 2-2.7 × log FC; expression of differentially expressed (DUX4 pathway) genes (DUX4 target genes; 1 μM, compared with wild type cells): normalized; plasma concentration at which inhibition of the p38 system in muscle was maximal ([2]; rat): greater than 20 ng/mL; plasma and muscle concentrations at which target engagement was maximal ([2]; rat trapezius muscle): greater than 20 ng/mL or ng/g; phospho MK2 to total MK2 ratio [2, 5]: significantly decreased; time to decrease of phospho MK2 to total MK2 ratio [2, 5]: ≤ 1 h; persistence of p38 system target engagement ([2]; rat, single oral dose 0.3 mg/kg): at least 12 hours; predicted reduction in DUX4 dependent target genes [3]: > 70%

**Q.** For `COc1nccc(-c2c(-c3ccc(F)cc3)ncn2C2CCC(O)CC2)n1` (stereo not shown) [SB239063], which “MYOG mRNA expression” value (myogenin (MYOG) mRNA) is on record?
**A.** no impact

**Q.** What does the source list for `CCc1nc(-c2cccc(C)c2)c(-c2ccnc(NC(=O)c3ccccc3)c2)s1` [TAK-715, N-(4-(2-ethyl-4-(3-methylphenyl)-1,3-thiazol-5-yl]-2-pyridyl]benzamide]?
**A.** IC50 [1]: < 0.01 µM; MYOG mRNA expression (myogenin (MYOG) mRNA): no impact

**Q.** With `NC(=O)c1ccc(N(C(N)=O)c2c(F)cccc2F)nc1-c1ccc(F)cc1F` [VX-702, 2-(2,4-difluorophenyl)-6-(1-(2,6-difluorophenyl)ureido)nicotinamide] as the compound, how does the IC50 [1] read?
**A.** < 0.01 µM

**Q.** And the “MYOG mRNA expression” value (myogenin (MYOG) mRNA)?
**A.** no impact

**Q.** Which results are given for “FTX-2: DUX4 sequence-directed antisense oligonucleotide purchased from Exiqon, CAGCGTCGGAAGGTGG (SEQ ID NO: 1) (listed as DNA, chemistry not given here)”?
**A.** expression of DUX4 and target genes ZSCAN4, TRIM43, MBD3L2, LEUTX, KHDC1L ([4]; 1 μM vs DMSO): reduced amounts; DUX4 and downstream gene MBD3L2 expression ([4]; different dilutions): dose dependent reduction
